Data: patent US12648941B2, “Piperidine urea derivatives for use as inotropic agents” (Helsinn Healthcare SA, priority 2021, dated 2026)
Entries after “also recorded” stand apart in the source; their conditions may differ.

Tests used:
[1] = system: cardiomyocytes isolated from hearts of SHAM mice; assay: Intracellular Ca2+ transients (Fluo-3, confocal line scan); format: cell-based, mouse
Protocol: (§1) Cardiomyocytes were isolated freshly from cardiac ventricles separately from SHAM and HF mice following the protocol developed by the Alliance for Cellular Signalling (AfCS Procedure Protocol ID PP00000125). From each of the 5 SHAM and 3 HF hearts a cell suspension was made and divided into 10 aliquots each, for a total of 50 aliquots from SHAM and 30 aliquots from HF hearts. These aliquots were treated with vehicle, AC01/HM01 or D-Lys3-GHPR-6+AC01/HM01 as stated and used for the subsequent physiological and biochemical experiments.
AC01/HM01 was suspended in phosphate buffer saline solution (PBS: in mM: NaCl 137, KCl 7, Na2HPO4 10, KH2PO4 […]) and diluted to obtain 3 different concentrations: 0.2, 0.5 or 1 μM in Tyrode solution. We used a concentration range within 0.2-1 μM to ensure that the receptor was activated. […] Prior to contractility and Ca^2+ signaling measurements and biochemical assays, cardiomyocyte suspensions from SHAM and HF hearts were randomized to 3 types of treatments: vehicle, AC01/HM01, or D-Lys3-GHPR-6+AC01/HM01. The treatment with different agents occurred for 15 minutes at room temperature. Some cell suspension aliquots were flash frozen in liquid N2 and stored at −80° C. for later biochemistry analyses. All the experiments were conducted blinded regarding the treatment of cardiomyocytes.
Fresh isolated cardiomyocytes were aliquoted in 1.5 ml tubes and incubated with a cell permeable form of fluorescent Ca2+ indicator Fluo-3 AM followed by washing for >5 min. […] ImageJ software (open source software developed by NIH, Bethesda, USA) was used to quantify changes in fluorescence (Ca2+ transients) and contractility of single cardiomyocytes.
Ca^2+ transients were measured using a confocal microscope (Biorad) in line scan mode. […] The fluorescent signal (F/Fo) was calculated as the ratio between resting fluorescence before the start of the Ca^2+ transient (FO) and the peak fluorescence (F) of the Ca^2+ transient.

[2] = system: cardiomyocytes isolated from hearts of heart failure (HF) mice; assay: Cardiomyocyte contractility (fractional shortening, % FS), heart failure (MI) cardiomyocytes; format: cell-based, mouse; conditions: 1 μM
Protocol: as §1
AC01/HM01 was suspended in phosphate buffer saline solution (PBS: in mM: NaCl 137, KCl 7, Na2HPO4 10, KH2PO4 […]) and diluted to obtain 3 different concentrations: 0.2, 0.5 or 1 μM in Tyrode solution. We used a concentration range within 0.2-1 μM to ensure that the receptor was activated. […]
Line scan fluorescence images were acquired using a confocal microscope (Biorad; 40× oil immersion lenses). […] ImageJ software (open source software developed by NIH, Bethesda, USA) was used to quantify changes in fluorescence (Ca^2+ transients) and contractility of single cardiomyocytes.
The contractility of cardiomyocytes was measured as the percent of length shortening (fractional shortening; % FS). […]

[3] = Phase 1 single ascending dose study, urinary excretion; format: in vivo, human; conditions: 10 mg dose; urine collected 24 hours
Protocol: Blood samples for analytical assay of HM01 and the 3 major metabolites (M2, M6 and M9) were collected at pre-dose (within 60 minutes prior to drug administration), and at 0.25, 0.5, 1, 1.5, 2, 3, 4, 6, 8, 12, 16, 24, 30, 36, 48, 60 and 72 hours post dose (18 samples). Urine was collected for 24 hours after dosing. Blood and urine samples were analyzed for HM01 and its metabolites concentrations using validated LC-MS/MS methods.
Additional parameters were derived from urine, i.e., Ae(0-24), the amount of the parent drug and metabolites excreted in 24 h, and CLR, the renal clearance.

[4] = Phase 1 SAD, simplified nutritional appetite questionnaire; format: in vivo, human; conditions: 0.1-10 mg
Protocol: (§2) Blood samples for determination of growth hormone (GH), insulin-like growth factor-1 (IGF-1), adrenocorticotropic hormone (ACTH), prolactin, cortisol and aldosterone in serum at pre-dose and 0.5, 1, 2, 3, 4, 6 and 24 hours post-dose were collected by venous puncture. All biomarkers were determined using enzyme linked immunosorbent assays (ELISA). Simplified nutritional appetite questionnaire based on appetite assessments at Day −1 after dinner, and on Day 1 pre-dose, 1, 2, 4, 8, and 24 hours after dosing. Stool diary starting on Day 1 until discharge on Day 4.

[5] = system: growth hormone (GH); assay: Phase 1 SAD pharmacodynamics, serum GH (ELISA); format: in vivo, human
Protocol: as §2

[6] = system: prolactin; assay: Phase 1 SAD pharmacodynamics, serum prolactin (ELISA); format: in vivo, human
Protocol: as §2

## COc1ccc([C@H](C)NC(=O)N(C)[C@@H]2CCN(C)CC2(C)C)c(Cl)c1Cl.Cl [AC01/HM01, 1-[(1S)-1-(2,3-dichloro-4-methoxyphenyl)ethyl]-3-methyl-3-[(4R)-1-methyl-3,3-dimethyl-4-piperidyl]-urea]
[1]; 1 μM, with D-Lys 3 GHRP-6 pretreatment
  Ca2+ transient amplitude vs vehicle: did not have any impact on Ca^2+ transient amplitudes; also recorded: did not change the Ca^2+ transient amplitude
[1]; 1 μM, without D-Lys3 pretreatment
  Ca2+ transient amplitude vs vehicle: did not have any impact on Ca^2+ transient amplitudes; also recorded: did not change the Ca^2+ transient amplitude
[1]; all tested concentrations (0.2, 0.5, 1 μM)
  Ca2+ transient amplitude vs vehicle: no significant change in Ca^2+ transient amplitude; also recorded: did not cause alteration of Ca^2+ transient amplitudes
[2]
  contractility, fractional shortening (FS %) vs vehicle: significant increase of contractility; also recorded: positively responded
[3]
  fraction of the dose excreted in the urine: Approximately 10%
[4]
  appetite questionnaire, dose groups vs placebo: no relevant or consistent differences
[5]; 0.3 and 0.1 mg HM01
  GH increase: lower increases
[5]; 1.0 and 10 mg HM01
  GH increase: higher
[5]; 1.0 vs 10 mg HM01
  mean GH curves, comparison of doses: similar
[5]; after single oral administration
  time of peak GH concentrations: 2-3 hours post-dose
[5]; after single oral administration, healthy males
  concentrations of GH vs baseline: increased from baseline
[6]; 10 mg vs 1.0 mg
  prolactin increase, comparison of doses: higher after 10 mg compared to 1.0 mg
[6]; 1.0 and 10 mg HM01
  concentrations of prolactin: rapidly increased above baseline values
